Experimental data published in patent US7781594B2, “5-(4-methanesulfonyl-phenyl)-thiazole derivatives for the treatment of acute and chronic inflammatory diseases” (Faes Farma, S.A., priority 2008, dated 2010).
Entries after “also recorded” stand apart in the source; their conditions may differ.

Columns and labels:
Assay type in all cases: cell-based, human
TNF-alpha [1] = test: TNF-alpha production by PBMC of healthy volunteers, Cytometric Bead Array
IL-8 = IL-8 production by PBMC from patients with rheumatoid arthritis, CBA
Experimental: (§1) CBA protocol was followed according to the manufacturer's instructions. The election of microparticles was performed following the summary of FIG. 1.
(§2) The acquisition on samples was performed with the BD FACS Array Bioanalyser System (FACSArray, Becton Dickinson, San José, Calif., USA) and the analysis of the results was completed with the software FCAP Array (Becton Dickinson) in a PC computer.
(§3) Briefly, the experimental protocol consisted of a plate pre-washing out with Wash Buffer. After decantation, the mixture of capture microparticles was re-suspended in the vortex. Standards and samples were added in the adequate dilution. After permanent stirring incubation during 1 h, the PE detection reagent was added and incubated again during 2 h at room temperature. After a washing-out, the acquisition was performed in the flow cytometer.
The effect on IL-8 production by PBMC from patients with rheumatoid arthritis was also studied. […] Culture supernatants were frozen at −20° C. and IL-8 concentration was quantified by BD FACS Array Bioanalyser by using CBA Flex Set, specific to determine IL-8 concentration, following the manufacturer instructions.

IFN-gamma = IFN-gamma production by PBMC from patients with rheumatoid arthritis, CBA
Experimental: as §1, §2
as §3, with “After a washing-out, the acquisition was performed in the flow cytometer.” left out
PBMC (5×10^4 cells/well) from 7 patients with rheumatoid arthritis were cultured in duplicate 200 μl of complete medium supplement with the highest solvent concentration (10^−6 M), and 10^−6 M, 10^−7 M and 10^−8 M of compound 12, in the presence and absence either of LPS (10 μg/ml), or anti-CD3 (12.5 ng/ml)+anti-CD28 (⅓×10^5), during 24 hours. Culture supernatants were frozen at −20° C. and IFN-gamma concentration was assessed by BD FACS Array Bioanalyser by using CBA Flex Set, specific to determine IFN-gamma concentration, following the manufacturer instructions.

IL-10 = IL-10 production by PBMC from healthy volunteers, CBA; details: FIG. 9
Experimental: as §1, §2, §3
The effects of compound 12 on IL-10 production by the PBMC from healthy volunteers and patients with rheumatoid arthritis were investigated in the presence and absence of LPS stimulation and with the combination of monoclonal antibodies anti-CD3 and anti-CD28. […]

TNF-alpha [2] = test: TNF-alpha production by PBMC of healthy volunteers, ELISA
Experimental: In order to quantify the serum cytokines concentration, the extracted blood was stored in tubes both with and without anti-coagulant (collected by antecubital venopunction and arterial catheter, respectively). Blood was allowed to coagulate at room temperature in the laboratory, further separating the serum by centrifugation (600×g during 20 minutes). Supernatant were collected, filtered, divided in aliquotes and stored at −70° C. Concentration assays for different cytokines were performed by using the commercial kits described in Table 2.
Supernatants were unfrozen up to the room temperature and faced against the respective anti-cytokine by fixing them in the plate bottom and incubating them during a variable time. […] The results were assessed with the enzymo-immunoanalysis reader Multititer Plus (Tiertek Multiscan Plus, Flow Laboratories). […]
Effects of compound 12 on TNF-alpha production by PBMC of healthy volunteers in the presence or in the absence of LPS were first investigated. […] Supernatant of cultures were frozen at −20° C. and the concentration of TNF-alpha was quantified with ELISA species-specific (enzyme-linked immunosorbent assay for quantitative detection of tumour necrosis factor-alpha: human TNF-alpha ELISA BM S223/4TEUCE, Bender Med System Inc, Burlinghane Calif. 94010).

## Cc1nc(OC2CCCC2)c(-c2ccc(S(C)(=O)=O)cc2)s1 [Compound 12, 4-cyclopentyloxy-5-(4-methylsulfonyl-phenyl)-2-methyl-thiazole]
TNF-alpha [1]; 10^−6 M, 10^−7 M and 10^−8 M, statistically significant (p<0.05), FIG. 3
  Effect on TNF-alpha production by PBMC stimulated with LPS: diminished TNF-alpha production
TNF-alpha [1]; anti-CD3 + anti-CD28, or absence of exogenous stimuli
  Effect on TNF-alpha secretion by PBMC, anti-CD3 and anti-CD28 stimulated or spontaneous: neither TNF-alpha secretion by PBMC stimulated with monoclonal antibodies anti-CD3 and anti-CD28 nor spontaneous one (as observed in the absence of exogenous stimuli) was modified
IL-8
  Effect on IL-8 production by PBMC, spontaneous or anti-CD3 and anti-CD28 induced: neither modified the spontaneous IL-8 production nor that induced by the combination of monoclonal antibodies anti-CD3 and anti-CD28
IL-8; 10^−6 M and 10^−8 M, FIG. 8
  Effect on LPS-induced production of IL-8 in PBMC: significantly inhibited
IFN-gamma; patients with rheumatoid arthritis, 10^−6 M, 10^−7 M and 10^−8 M, p<0.05, FIG. 6
  Effect on IFN-gamma production by PBMC stimulated with anti-CD3 and anti-CD28: significantly lowered
IFN-gamma; printed 'from healthy volunteers' in the paragraph on patients with rheumatoid arthritis
  Effect on IFN-gamma secretion by PBMC, spontaneous or LPS-induced: modified neither the spontaneous IFN-gamma secretion nor the LPS-induced
IL-10
  Effect on IL-10 production by PBMC in the presence and absence of LPS or anti-CD3 + anti-CD28: no effects; also recorded: No statistical differences were found
TNF-alpha [2]; 10^−6 M and 10^−7 M, LPS, p<0.05 vs vehicle, FIG. 2
  Effect on TNF-alpha concentration in the supernatant of LPS-stimulated PBMC: diminished in a statistically significant manner
TNF-alpha [2]; 10^−6 M, no stimulus
  Effect on spontaneous TNF-alpha production by PBMC: lowered the spontaneous TNF-alpha production
